Data as given in EP0791591B1, “Benzothiophenes, formulations containing same, and methods for their préparation” (ELI LILLY AND COMPANY, priority 1996, dated 1997).
Like-named read-outs stand apart in the source and are kept apart here. Marks after values point to notes of the source that are not given here.

Assays:
physchem = conditions: 66% dmf
[1] = system: Uterine Eosinophil Peroxidase (EPO); conditions: rat, in vivo
Excerpt: (§1) Seventy-five day old female Sprague Dawley rats (weight range of 200 to 225g) are obtained from Charles River Laboratories (Portage, MI). The animals are either bilaterally ovariectomized (OVX) or exposed to a Sham surgical procedure at Charles River Laboratories, and then shipped after one week. Upon arrival, they are housed in metal hanging cages in groups of 3 or 4 per cage and have ad libitum access to food (calcium content approximately 0.5%) and water for one week. Room temperature is maintained at 22.2° ± 1.7° C with a minimum relative humidity of 40%. The photoperiod in the room is 12 hours light and 12 hours dark.
(§2) Dosing Regimen Tissue Collection. After a one week acclimation period (therefore, two weeks post-OVX) daily dosing with test compound is initiated. 17α-ethynyl estradiol or the test compound is given orally, unless otherwise stated, as a suspension in 1% carboxymethylcellulose or dissolved in 20% cyclodextrin. Animals were dosed daily for 4 days. Following the dosing regimen, animals are weighed and anesthetized with a ketamine: Xylazine (2:1, V:V) mixture and a blood sample is collected by cardiac puncture. The animals are then sacrificed by asphyxiation with CO2, the uterus is removed through a midline incision, and a wet uterine weight is determined.
(§3) Uterine Eosinophil Peroxidase (EPO) Assay. Uteri are kept at 4° C until time of enzymatic analysis. The uteri are then homogenized in 50 volumes of 50 mM Tris buffer (pH - 8.0) containing 0.005% Triton X-100. Upon addition of 0.01% hydrogen peroxide and 10 mM O-phenylenediamine (final concentrations) in Tris buffer, increase in absorbance is monitored for one minute at 450 nm. The presence of eosonophils in the uterus is an indication of estrogenic activity of a compound. The maximal velocity of a 15 second interval is determined over the initial, linear portion of the reaction curve.

Serum cholesterol = Serum cholesterol analysis in ovariectomized rats; format: in vivo, Sprague Dawley rats; conditions: oral, daily for 4 days, decrease versus ovariectomized controls
Excerpt: as §1, §2
Cholesterol Analysis. Blood samples are allowed to clot at room temperature for 2 hours, and serum is obtained following centrifugation for 10 minutes at 3000 rpm. Serum cholesterol is determined using a Boehringer Mannheim Diagnostics high performance cholesterol assay. Briefly the cholesterol is oxidized to cholest-4-en-3-one and hydrogen peroxide. The hydrogen peroxide is then reacted with phenol and 4-aminophenazone in the presence of peroxidase to produce a p-quinone imine dye, which is read spectrophotemetrically at 500 nm. Cholesterol concentration is then calculated against a standard curve. The entire assay is automated using a Biomek Automated Workstation.

ovariectomized rats [2] = experiment: Uterine weight in ovariectomized rat post-menopausal model, 4 days oral dosing; conditions: daily for 4 days, increase versus ovariectomized controls
Excerpt: as §1, §2

[3] = system: Uterine Eosinophil Peroxidase (EPO); experiment: Uterine Eosinophil Peroxidase (EPO) Assay in ovariectomized rats; conditions: for Uterine Eosinophil (Vmax): oral, daily for 4 days, eosinophil peroxidase Vmax
Excerpt: as §1, §2, §3

ovariectomized rats [4] = experiment: Osteoporosis Test Procedure: 35-day ovariectomized rat, femur density; format: in vivo, Sprague Dawley rats; conditions: oral, in 20% hydroxypropyl β-cyclodextrin, daily for 35 days; result in words
Method: Following the General Preparation Procedure, infra, the rats are treated daily for 35 days (6 rats per treatment group) and sacrificed by carbon dioxide asphyxiation on the 36th day. The 35 day time period is sufficient to allow maximal reduction in bone density, measured as described herein. At the time of sacrifice, the uteri are removed, dissected free of extraneous tissue, and the fluid contents are expelled before determination of wet weight in order to confirm estrogen deficiency associated with complete ovariectomy. […] The uteri are then placed in 10% neutral buffered formalin to allow for subsequent histological analysis. The right femurs are excised and digitilized x-rays generated and analyzed by an image analysis program (NIH image) at the distal metaphysis. The proximal aspect of the tibiae from these animals are also scanned by quantitative computed tomography. In accordance with the above procedures, compounds of the present invention and ethynyl estradiol (EE2) in 20% hydroxypropyl β-cyclodextrin are orally administered to test animals.

[5] = system: MCF-7 breast adenocarcinoma cells (ATCC HTB 22); experiment: MCF-7 Proliferation Assay (tritiated thymidine); format: cell-based; conditions: Homo sapiens, MCF7; MCF-7 cells, 48 hours with drug, tritiated thymidine pulse 4 hours
Method: MCF-7 breast adenocarcinoma cells (ATCC HTB 22) are maintained in MEM (minimal essential medium, phenol red-free, Sigma, St. Louis, MO) supplemented with 10% fetal bovine serum (FBS) (V/V), L-glutamine (2 mM), sodium pyruvate (1 mM), HEPES {(N-[2-hydroxyethyl]piperazine-N'-[2-ethanesulfonic acid]10 mM}, non-essential amino acids and bovine insulin (1 ug/mL) (maintenance medium). Ten days prior to assay, MCF-7 cells are switched to maintenance medium supplemented with 10% dextran coated charcoal stripped fetal bovine serum (DCC-FBS) assay medium) in place of 10% FBS to deplete internal stores of steroids. MCF-7 cells are removed from maintenance flasks using cell.dissociation medium (Ca++/Mg++ free HBSS (phenol red-free) supplemented with 10 mM HEPES and 2 mM EDTA). Cells are washed twice with assay medium and adjusted to 80,000 cells/mL. Approximately 100 µL (8,000 cells) are added to flat-bottom microculture wells (Costar 3596) and incubated at 37° C in a 5% CO2 humidified incubator for 48 hours to allow for cell adherence and equilibration after transfer. Serial dilutions of drugs or DMSO as a diluent control are prepared in assay medium and 50 µL transferred to triplicate microcultures followed by 50 µL assay medium for a final volume of 200 µL. […] Samples are counted by liquid scintillation using a Wallac BetaPlace β counter. […]

For `COc1ccc(-c2sc3cc(OC)ccc3c2C(=O)c2ccc(OCC[N+]3([O-])CCCCC3)cc2)cc1` [Example 2], the pKa (physchem) was 6.39, the “Uterine Eosinophil (Vmax)” value [1] was 11.2 and the “Serum Cholest. % Dec.” value (Serum cholesterol; 1.0 mg/kg) was 65.7* %.

In the case of `C#C[C@]1(O)CC[C@H]2[C@@H]3CCc4cc(O)ccc4[C@H]3CC[C@@]21C` [EE2, 17α-ethynyl estradiol, reference compound], the “Uterine Weight % Inc” value (ovariectomized rats [2]; 0.1 mg/kg) is reported as 207.5* %, the “Uterine Eosinophil (Vmax)” value ([3]; 0.1 mg/kg) is reported as 205.8* and the “eosinophil infiltration into the uterus” value ([3]; result in words, stromal layer of ovariectomized rat uteri) is reported as “substantial and expected increase”. For the same molecule, the “Serum Cholest. % Dec.” value (Serum cholesterol; 0.1 mg/kg) was 87.3* % and the “bone loss (femur density)” value (ovariectomized rats [4]) was “prevented this loss”.

In the case of `O=C(c1ccc(OCC[N+]2([O-])CCOCC2)cc1)c1c(-c2ccc(O)cc2)sc2cc(O)ccc12` [Example 4, [2-(4-Hydroxyphenyl)-6-hydroxybenzo[b]thien-3-yl][4-[2-(1-morpholino)ethoxy]phenyl]methanone N-oxide], the “Uterine Eosinophil (Vmax)” value [1] is reported as 4.1 and the “Serum Cholest. % Dec.” value (Serum cholesterol; 1.0 mg/kg) is reported as 56.2* %.

In the case of `[O-][N+]1(CCOc2ccc(Cc3c(-c4ccc(O)cc4)sc4cc(O)ccc34)cc2)CCCCC1` [Example 7, [2-(4-Hydroxyphenyl)-6-hydroxybenzo[b]thien-3-yl][4-[2-(1-piperidinyl)ethoxy]phenyl]methane N-oxide], the pKa (pKa determination) is reported as 6.49.

In the case of `O=C(c1ccc(OCC[N+]2([O-])CCCCC2)cc1)c1c(-c2ccc(O)cc2)sc2cc(O)ccc12` [Example 1, [2-(4-Hydroxyphenyl)-6-hydroxybenzo[b]thien-3-yl][4-[2-(1-piperidinyl)ethoxy]phenyl]methanone N-oxide], the “Uterine Weight % Inc” value (ovariectomized rats [2]; 0.1 mg/kg) is reported as 31.2* %, the “Uterine Weight % Inc” value (ovariectomized rats [2]; 1.0 mg/kg) is reported as 29.6* % and the “Uterine Weight % Inc” value (ovariectomized rats [2]; 10.0 mg/kg) is reported as 8.3%. For the same molecule, the “Uterine Eosinophil (Vmax)” value ([3]; 0.1 mg/kg) was 4.4, the “Uterine Eosinophil (Vmax)” value ([3]; 1.0 mg/kg) was 4.6 and the “Uterine Eosinophil (Vmax)” value ([3]; 10.0 mg/kg) was 2.5. The pKa (pKa determination; 66% dmf) was 6.28, the IC50 [5] was roughly 1 µM and the “Serum Cholest. % Dec.” value (Serum cholesterol; 0.1 mg/kg) was 44.9* %. For the same molecule, the “Serum Cholest. % Dec.” value (Serum cholesterol; 1.0 mg/kg) was 68.7* % and the “Serum Cholest. % Dec.” value (Serum cholesterol; 10.0 mg/kg) was 70.3* %.

In the case of `CC[N+]([O-])(CC)CCOc1ccc(C(=O)c2c(-c3ccc(O)cc3)sc3cc(O)ccc23)cc1` [Example 3, [2-(4-Hydroxyphenyl)-6-hydroxybenzo[b]thien-3-yl][4-[2-(N, N-diethyl)ethoxy]phenyl]methanone N-oxide], the pKa (physchem) is reported as 6.15, the “Uterine Eosinophil (Vmax)” value [1] is reported as 21.7* and the “Serum Cholest. % Dec.” value (Serum cholesterol; 1.0 mg/kg) is reported as 64.2* %.

`[O-][N+]1(CCOc2ccc(C(O)c3c(-c4ccc(O)cc4)sc4cc(O)ccc34)cc2)CCCCC1` (stereo not shown) [Example 6] showed a pKa (pKa determination) of 6.41.

In the case of “[2-(4-n-Butylsulfonoylphenyl)-6-n-butylsulfonoylbenzo[b]thien-3-yl][4-[2-(1-piperidinyl)ethoxy]phenyl]methanone N-oxide [Example 5]”, the “Uterine Eosinophil (Vmax)” value [1] is reported as 4.7 and the “Serum Cholest. % Dec.” value (Serum cholesterol; 1.0 mg/kg) is reported as 74.9* %.
